From patent US20040171543A1, “Matrix metalloproteinase inhibitors and methods for identification of lead compounds” (priority 2002, published 2004)

Tests used:
Type in all cases: biochemical
[1] = target: T1, MMP-13 catalytic domain (MMP-13CD) (Homo sapiens, UniProt P45452); test: Fluorigenic peptide-1 substrate based assay, MMP-13CD, with/without AcNHOH; conditions: IC50 with AcNHOH divided by IC50 without, listed as drawing 47
T1 construct: The catalytic domain of the MMP-13 enzyme, namely matrix metalloproteinase-13 catalytic domain (“MMP-13CD”)
Protocol: The catalytic domain of the MMP-13 enzyme, namely matrix metalloproteinase-13 catalytic domain (“MMP-13CD”), rather than the corresponding full-length enzyme, MMP-13 was used in such assay.
50 mM HEPES buffer (pH 7.0)
2% DMSO (with or without inhibitor test compound)
1. Dispensed 2 μL inhibitor test sample (in 100% DMSO) into well.
2. Added 88 μL assay mixture and mixed well, avoiding bubbles.
3. Initiated reactions with 10 μL of 5 nM MMP-13CD; mixed well, avoiding bubbles.
4. Immediately measured the kinetics of the reactions at room temperature.
Alternatively, an endpoint read can also be used to determine reaction velocity provided the initial fluorescence of the solution, as recorded before addition of enzyme, is subtracted from the final fluorescence of the reaction mixture.

MMP-9 full length (9FL) = target: T2, MMP-9 full length (9FL) (Homo sapiens, UniProt P14780); test: Fluorigenic peptide-1 substrate based assay, MMP-9, with/without AcNHOH
T2 construct: purchased Calbiochem; host or cells: stimulated neutrophils
T2 sequence (P14780 107-707 limits assumed): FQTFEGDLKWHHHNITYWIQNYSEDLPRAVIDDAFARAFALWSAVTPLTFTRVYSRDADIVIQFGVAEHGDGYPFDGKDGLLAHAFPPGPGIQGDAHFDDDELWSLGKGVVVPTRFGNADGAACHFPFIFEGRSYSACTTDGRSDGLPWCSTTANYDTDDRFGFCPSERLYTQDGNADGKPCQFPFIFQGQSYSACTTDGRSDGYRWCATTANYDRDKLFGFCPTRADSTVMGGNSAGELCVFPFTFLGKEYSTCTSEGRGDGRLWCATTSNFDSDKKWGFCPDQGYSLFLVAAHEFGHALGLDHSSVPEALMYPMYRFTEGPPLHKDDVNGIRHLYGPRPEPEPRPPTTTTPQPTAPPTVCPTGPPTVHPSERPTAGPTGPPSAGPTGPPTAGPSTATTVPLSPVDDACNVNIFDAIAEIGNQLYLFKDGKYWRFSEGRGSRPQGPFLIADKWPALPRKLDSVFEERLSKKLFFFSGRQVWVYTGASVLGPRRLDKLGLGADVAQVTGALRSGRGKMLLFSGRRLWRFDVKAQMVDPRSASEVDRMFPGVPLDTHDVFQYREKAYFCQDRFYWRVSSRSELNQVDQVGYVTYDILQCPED
From the text: MMP-9 may be obtained from commercial sources. For example, full-length pro-MMP-9 purified from stimulated neutrophils is available from Calbiochem.

MMP-2 full length (2FL) = target: T3, MMP-2 full length (2FL) (Homo sapiens, UniProt P08253); test: Fluorigenic peptide-1 substrate based assay, MMP-2, with/without AcNHOH
T3 sequence (P08253 110-660): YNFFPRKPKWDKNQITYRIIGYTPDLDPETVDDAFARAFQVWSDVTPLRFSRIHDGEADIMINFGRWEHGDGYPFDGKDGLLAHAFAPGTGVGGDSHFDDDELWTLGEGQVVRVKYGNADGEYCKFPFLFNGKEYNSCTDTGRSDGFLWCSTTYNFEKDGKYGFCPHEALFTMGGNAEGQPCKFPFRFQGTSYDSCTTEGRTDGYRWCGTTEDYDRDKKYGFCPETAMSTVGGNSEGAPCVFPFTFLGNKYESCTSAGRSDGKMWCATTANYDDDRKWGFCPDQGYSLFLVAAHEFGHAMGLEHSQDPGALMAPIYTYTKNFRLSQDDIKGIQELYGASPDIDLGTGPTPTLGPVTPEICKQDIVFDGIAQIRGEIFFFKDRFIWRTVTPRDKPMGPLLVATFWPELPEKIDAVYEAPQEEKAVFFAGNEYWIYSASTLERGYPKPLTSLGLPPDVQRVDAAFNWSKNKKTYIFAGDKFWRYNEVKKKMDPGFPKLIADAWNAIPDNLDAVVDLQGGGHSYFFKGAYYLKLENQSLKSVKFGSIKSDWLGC

MMP-2 = target: T4, MMP-2 (Homo sapiens, UniProt P08253); test: Steady-state kinetics of the mechanism of inhibition of MMP-2; conditions: 6 inhibitor concentrations 0 to 600 nanomolar, FIG. 8
T4 sequence (P08253 110-660): T3 sequence (P08253 110-660)
From the text: In FIG. 8, 1 over the initial velocity Vo, which is the initial rate of product formation in a steady state kinetics assay, is plotted on the Y-axis versus 1 over concentration of substrate [S] used in the assay on the X-axis for inhibition of MMP-2 with N-[(3-phenylisoxazol-5-ylmethyl)-aminothiocarbonyl]-benzamide at 6 concentrations of from 0 nanomolar to 600 nanomolar.

SMILES: O=C(NC(=S)NCc1cc(-c2ccccc2)no1)c1ccccc1 [N-[(3-phenylisoxazol-5-ylmethyl)-aminothiocarbonyl]-benzamide]
- IC50 Ratio (±) [1]: 0.09
- IC50 Ratio (±) (MMP-9 full length (9FL)): 0.39
- IC50 Ratio (±) (MMP-2 full length (2FL)): 0.10
- Mechanism of inhibition of MMP-2 (MMP-2): uncompetitive inhibitor
